# Reference: patent US20240400561A1, “NOVEL SUBSTITUTED SULFONYLUREA COMPOUNDS AS INHIBITORS OF INTERLEUKIN-1 ACTIVITY” (Viva Star Biosciences (Suzhou) Co., Ltd., priority 2021, published 2024)
# Biological target: T1, NLRP3 (Homo sapiens, UniProt Q96P20)
# T1 construct: Seed THP-1 cells (5.56*10^5 cells/mL) containing 1.0 ug/mL LPS; endogenous in cells; host or cells: THP-1 cells
# Assay: THP-1 cell assay (LPS priming, nigericin), IL1β release by HTRF; called pyroptosis assay, THP IC50
# Assay type: cell-based
# Conditions: NLRP3 inhibitory activity; THP-1 cells, 1.0 ug/mL LPS, compound 3 hrs, nigericin 5 uM 1 hr, IL1β in supernatant
# Description: The following method was used for compound screening. • 1. Seed THP-1 cells (5.56*10^5 cells/mL) containing 1.0 ug/mL LPS (SIGMA, L6529) in 45 uL RPMI 1640 medium (without FBS) into 384-well plate (Thermo Scientific, 164688). • 2. Add 5 uL compound (10 doses starting from 5 uM, 1:3 dilution) or vehicle (0.05% DMSO in medium) to the appropriate wells. • 3. Centrifuge the plates at 1000 rpm for 2 mins and incubate for 3 hrs at 37° C., 5% CO2. • 4. Add 5 uL nigericin (MEC, HY-100381) (final conc. 5 uM) to sample wells and positive control wells; add 5 uL RPMI 1640 medium to negative control wells. • 5. Centrifuge plates at 1000 rpm for 2 mins and incubate for 1 hr at 37° C., 5% CO2. • 6. At the end of the incubation period, centrifuge plates at 1000 rpm for 6 mins and transfer 8 uL supernatant into 384-well assay plates (PerkinElmer, 6008280). • 7. Add 8 ul RPMI 1640 medium into each well and spin down for 10 secs. • 8. Prepare the standard solutions and pre-mixed IL1β antibody solution of Human […] kits (PerkinElmer, 62HIL1BPEH) according to the instruction. • 9. Add 16 uL standard solutions into clear wells of 384-well assay plates. • 10. Add 4 uL pre-mixed IL1β antibody solution to all wells including sample wells, positive control wells, negative control wells and standard solutions wells. • 11. Seal the plates, spin down for 10 secs, incubation for overnight at RT and read on an HTRF® compatible reader (BMG LABTECH, PHERAstar FS). • 12. The concentrations of IL1β for treated wells are calculated by the standard curve. • 13. The IC50 data is fitted to a non-liner regression equation (log inhibitor vs. response—Variable slope four parameters)).
# T1 sequence (Q96P20 whole entry): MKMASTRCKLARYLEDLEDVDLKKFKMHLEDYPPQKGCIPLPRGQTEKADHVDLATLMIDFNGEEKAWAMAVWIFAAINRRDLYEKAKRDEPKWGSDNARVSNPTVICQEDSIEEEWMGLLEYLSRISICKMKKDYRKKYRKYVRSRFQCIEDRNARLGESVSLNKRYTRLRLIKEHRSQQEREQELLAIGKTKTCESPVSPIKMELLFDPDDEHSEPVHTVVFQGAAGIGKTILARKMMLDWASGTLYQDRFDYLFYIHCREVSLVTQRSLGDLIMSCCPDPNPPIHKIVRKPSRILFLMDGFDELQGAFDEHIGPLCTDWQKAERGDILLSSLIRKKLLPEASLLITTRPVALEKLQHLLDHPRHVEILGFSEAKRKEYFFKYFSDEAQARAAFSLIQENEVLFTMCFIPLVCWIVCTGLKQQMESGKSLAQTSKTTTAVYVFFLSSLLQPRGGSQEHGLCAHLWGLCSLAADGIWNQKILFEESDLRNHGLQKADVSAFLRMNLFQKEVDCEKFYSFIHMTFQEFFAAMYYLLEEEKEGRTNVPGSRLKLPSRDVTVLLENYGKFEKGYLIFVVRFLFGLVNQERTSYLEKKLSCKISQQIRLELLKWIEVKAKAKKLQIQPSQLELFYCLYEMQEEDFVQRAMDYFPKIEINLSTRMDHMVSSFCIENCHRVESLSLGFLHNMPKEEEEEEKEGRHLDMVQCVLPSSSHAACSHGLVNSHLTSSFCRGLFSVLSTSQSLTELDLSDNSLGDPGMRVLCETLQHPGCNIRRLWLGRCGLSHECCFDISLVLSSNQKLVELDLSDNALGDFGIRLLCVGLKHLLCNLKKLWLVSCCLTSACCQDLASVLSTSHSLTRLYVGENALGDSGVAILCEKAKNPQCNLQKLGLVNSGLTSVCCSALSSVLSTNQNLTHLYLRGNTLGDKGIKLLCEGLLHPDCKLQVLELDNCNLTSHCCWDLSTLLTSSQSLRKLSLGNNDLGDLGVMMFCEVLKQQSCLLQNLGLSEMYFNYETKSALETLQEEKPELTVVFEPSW
row,SMILES,IC50 [nM]
1,"CC(C)(O)c1csc(S(=O)(=O)NC(=O)Nc2c(-c3ccnc4c3ccn4C3CCOC3)ccc3c2CCC3)c1 (centres unmarked) [Example 58, 4-(2-hydroxypropan-2-yl)-N-((5-(1-(tetrahydrofuran-3-yl)-1H-pyrrolo[2,3-b]pyridin-4-yl)-2,3-dihydro-1H-inden-4-yl)carbamoyl)thiophene-2-sulfonamide]",30 to 300
2,"Cc1cc2c(c(NC(=O)NS(=O)(=O)c3ccn(C4CC4)n3)c1-c1ccc3ncnn3c1)CCC2 [Example 97, N-((5-([1,2,4]triazolo[1,5-a]pyridin-6-yl)-6-methyl-2,3-dihydro-1H-inden-4-yl)carbamoyl)-1-cyclopropyl-1H-pyrazole-3-sulfonamide]",≤ 30
3,"CC(C)(O)c1csc(S(=O)(=O)NC(=O)Nc2c(-c3ccn4cncc4c3)ccc3c2CCC3)c1 [Example 54, 4-(2-hydroxypropan-2-yl)-N-((5-(imidazo[1,5-a]pyridin-7-yl)-2,3-dihydro-1H-inden-4-yl)carbamoyl)thiophene-2-sulfonamide]",≤ 30
4,"Cc1cc2c(c(NC(=O)NS(=O)(=O)c3cnn(C4CC4)c3)c1-c1ccn3nccc3c1)CCC2 [Example 14, 1-cyclopropyl-N-((6-methyl-5-(pyrazolo[1,5-a]pyridin-5-yl)-2,3-dihydro-1H-inden-4-yl)carbamoyl)-1H-pyrazole-4-sulfonamide]",≤ 30
5,"Cc1cc2c(c(NC(=O)NS(=O)(=O)c3ccn(C4CC4)n3)c1-c1ccn3nncc3c1)CCC2 [Example 78, N-((5-([1,2,3]triazolo[1,5-a]pyridin-5-yl)-6-methyl-2,3-dihydro-1H-inden-4-yl)carbamoyl)-1-cyclopropyl-1H-pyrazole-3-sulfonamide]",≤ 30
6,"Cc1cc2c(c(NC(=O)NS(=O)(=O)c3ccn(C4CC4)n3)c1-c1ccn3nccc3c1)CCC2 [Example 1, 1-cyclopropyl-N-((6-methyl-5-(pyrazolo[1,5-a]pyridin-5-yl)-2,3-dihydro-1H-inden-4-yl)carbamoyl)-1H-pyrazole-3-sulfonamide]",≤ 30
7,"CC(C)(O)c1csc(S(=O)(=O)NC(=O)Nc2c(-c3ccn4ncnc4c3)ccc3c2CCC3)c1 [Example 53, N-((5-([1,2,4]triazolo[1,5-a]pyridin-7-yl)-2,3-dihydro-1H-inden-4-yl)carbamoyl)-4-(2-hydroxypropan-2-yl)thiophene-2-sulfonamide]",≤ 30
8,"CC(C)(O)c1csc(S(=O)(=O)NC(=O)Nc2c(-c3ccnc4c3ccn4C3CCOCC3)ccc3c2CCC3)c1 [Example 56, 4-(2-hydroxypropan-2-yl)-N-((5-(1-(tetrahydro-2H-pyran-4-yl)-1H-pyrrolo[2,3-b]pyridin-4-yl)-2,3-dihydro-1H-inden-4-yl)carbamoyl)thiophene-2-sulfonamide]",30 to 300
9,"CC(C)(O)c1csc(S(=O)(=O)NC(=O)Nc2c(-c3cnc4[nH]ccc4c3)ccc3c2CCC3)c1 [Example 46, N-((5-(1H-pyrrolo[2,3-b]pyridin-5-yl)-2,3-dihydro-1H-inden-4-yl)carbamoyl)-4-(2-hydroxypropan-2-yl)thiophene-2-sulfonamide]",30 to 300
10,"Cc1cc2c(c(NC(=O)NS(=O)(=O)c3cncc(NC4CC4)c3)c1-c1ccn3nccc3c1)CCC2 [Example 37, 5-(cyclopropylamino)-N-((6-methyl-5-(pyrazolo[1,5-a]pyridin-5-yl)-2,3-dihydro-1H-inden-4-yl)carbamoyl)pyridine-3-sulfonamide]",≤ 30
11,"Cc1cc2c(c(NC(=O)NS(=O)(=O)c3ccn(C4CCC4)n3)c1-c1ccn3nccc3c1)CCC2 [Example 23, 1-cyclobutyl-N-((6-methyl-5-(pyrazolo[1,5-a]pyridin-5-yl)-2,3-dihydro-1H-inden-4-yl)carbamoyl)-1H-pyrazole-3-sulfonamide]",≤ 30
12,"Cc1cc2c(c(NC(=O)NS(=O)(=O)c3cc(C(C)(C)O)cs3)c1-c1ccn3cncc3c1)CCC2 [Example 69, 4-(2-hydroxypropan-2-yl)-N-((5-(imidazo[1,5-a]pyridin-7-yl)-6-methyl-2,3-dihydro-1H-inden-4-yl)carbamoyl)thiophene-2-sulfonamide]",≤ 30
13,"Cc1cc2c(c(NC(=O)NS(=O)(=O)c3ccn(C[C@H](C)O)n3)c1-c1ccn3nccc3c1)CCC2 [Example 80, (S)-1-(2-hydroxypropyl)-N-((6-methyl-5-(pyrazolo[1,5-a]pyridin-5-yl)-2,3-dihydro-1H-inden-4-yl)carbamoyl)-1H-pyrazole-3-sulfonamide]",≤ 30
14,"Cc1cc2c(c(NC(=O)NS(=O)(=O)c3cncc(OC4CC4)c3)c1-c1ccn3nccc3c1)CCC2 [Example 34, 5-cyclopropoxy-N-((6-methyl-5-(pyrazolo[1,5-a]pyridin-5-yl)-2,3-dihydro-1H-inden-4-yl)carbamoyl)pyridine-3-sulfonamide]",≤ 30
15,"CN(c1cncc(S(=O)(=O)NC(=O)Nc2c(-c3ccn4nccc4c3)ccc3c2CCC3)c1)C1CC1 [Example 30, 5-(cyclopropyl(methyl)amino)-N-((5-(pyrazolo[1,5-a]pyridin-5-yl)-2,3-dihydro-1H-inden-4-yl)carbamoyl)pyridine-3-sulfonamide]",30 to 300
16,"Cc1cc2c(c(NC(=O)NS(=O)(=O)c3cncc(OC4CCC4)c3)c1-c1ccn3nccc3c1)CCC2 [Example 35, 5-cyclobutoxy-N-((6-methyl-5-(pyrazolo[1,5-a]pyridin-5-yl)-2,3-dihydro-1H-inden-4-yl)carbamoyl)pyridine-3-sulfonamide]",≤ 30
17,"Cc1cc2cc(-c3c(C)cc4c(c3NC(=O)NS(=O)(=O)c3ccn(C5CC5)n3)CCC4)ccn2n1 [Example 88, 1-cyclopropyl-N-((6-methyl-5-(2-methylpyrazolo[1,5-a]pyridin-5-yl)-2,3-dihydro-1H-inden-4-yl)carbamoyl)-1H-pyrazole-3-sulfonamide]",≤ 30
18,"Cn1ccc2c(-c3ccc4c(c3NC(=O)NS(=O)(=O)c3cnn(CC5CC5)c3)CCC4)ccnc21 [Example 4, 1-(cyclopropylmethyl)-N-((5-(1-methyl-1H-pyrrolo[2,3-b]pyridin-4-yl)-2,3-dihydro-1H-inden-4-yl)carbamoyl)-1H-pyrazole-4-sulfonamide]",30 to 300
19,"CC(C)(O)c1csc(S(=O)(=O)NC(=O)Nc2c(-c3ccn4ccnc4c3)ccc3c2CCC3)c1 [Example 42, 4-(2-hydroxypropan-2-yl)-N-((5-(imidazo[1,2-a]pyridin-7-yl)-2,3-dihydro-1H-inden-4-yl)carbamoyl)thiophene-2-sulfonamide]",≤ 30
20,"Cc1cc2c(c(NC(=O)NS(=O)(=O)c3ccn(CC4CC4)n3)c1-c1ccn3nccc3c1)CCC2 [Example 10, 1-(cyclopropylmethyl)-N-((6-methyl-5-(pyrazolo[1,5-a]pyridin-5-yl)-2,3-dihydro-1H-inden-4-yl)carbamoyl)-1H-pyrazole-3-sulfonamide]",≤ 30
21,"CC(C)(O)c1csc(S(=O)(=O)NC(=O)Nc2c(-c3ccnc4[nH]ccc34)ccc3c2CCC3)c1 [Example 40, N-((5-(1H-pyrrolo[2,3-b]pyridin-4-yl)-2,3-dihydro-1H-inden-4-yl)carbamoyl)-4-(2-hydroxypropan-2-yl)thiophene-2-sulfonamide]",≤ 30
22,"Cc1cc2c(c(NC(=O)NS(=O)(=O)c3cnn(CC4CC4)c3)c1-c1ccnc3[nH]ccc13)CCC2 [Example 8, 1-(cyclopropylmethyl)-N-((6-methyl-5-(1H-pyrrolo[2,3-b]pyridin-4-yl)-2,3-dihydro-1H-inden-4-yl)carbamoyl)-1H-pyrazole-4-sulfonamide]",≤ 30
23,"O=C(Nc1c2c(cc(Cl)c1-c1ccn3nccc3c1)CCC2)NS(=O)(=O)c1ccn(C2CC2)n1 [Example 89, N-((6-chloro-5-(pyrazolo[1,5-a]pyridin-5-yl)-2,3-dihydro-1H-inden-4-yl)carbamoyl)-1-cyclopropyl-1H-pyrazole-3-sulfonamide]",≤ 30
24,"Cn1ccc2c(-c3ccc4c(c3NC(=O)NS(=O)(=O)c3cc(C(C)(C)O)cs3)CCC4)cncc21 [Example 47, 4-(2-hydroxypropan-2-yl)-N-((5-(1-methyl-1H-pyrrolo[2,3-c]pyridin-4-yl)-2,3-dihydro-1H-inden-4-yl)carbamoyl)thiophene-2-sulfonamide]",300 to 1000
25,"Cn1ncc2c(-c3ccc4c(c3NC(=O)NS(=O)(=O)c3cc(C(C)(C)O)cs3)CCC4)ccnc21 [Example 48, 4-(2-hydroxypropan-2-yl)-N-((5-(1-methyl-1H-pyrazolo[3,4-b]pyridin-4-yl)-2,3-dihydro-1H-inden-4-yl)carbamoyl)thiophene-2-sulfonamide]",30 to 300
26,"O=C(Nc1c(-c2ccn3nccc3c2)ccc2c1CCC2)NS(=O)(=O)c1cnn(CC2CC2)c1 [Example 7, 1-(cyclopropylmethyl)-N-((5-(pyrazolo[1,5-a]pyridin-5-yl)-2,3-dihydro-1H-inden-4-yl)carbamoyl)-1H-pyrazole-4-sulfonamide]",≤ 30
